Results: PubChem BioAssay (NCI)
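Exposure lasted 48 hours, with cells grown in 96-well plates and compounds tested at five concentrations. GI50 marks 50% less growth. The concentration for full growth arrest is given as TGI.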

Experiments:
Assay in all cases: NCI anticancer screen, dose series, 48 h
[1] = system: HOP-62 NSCLC
[2] = system: SF-539 CNS
[3] = system: OVCAR-5 ovarian
[4] = system: UACC-62 melanoma
[5] = system: COLO 205 colon
[6] = system: M14 melanoma
[7] = system: CAKI-1 renal
[8] = system: KM12 colon
[9] = system: T-47D breast
[10] = system: HCT-15 colon
[11] = system: MDA-MB-468 breast
[12] = system: SK-MEL-5 melanoma
[13] = system: RXF 393 renal
[14] = system: OVCAR-4 ovarian
[15] = system: 786-0 renal
[16] = system: SNB-75 CNS
[17] = system: A498 renal
[18] = system: PC-3 prostate
[19] = system: MOLT-4 leukemia
[20] = system: SR leukemia
[21] = system: SK-MEL-28 melanoma
[22] = system: A549 NSCLC
[23] = system: HCC-2998 colon
[24] = system: NCI-H460 lung
[25] = system: K-562 leukemia
[26] = system: HOP-92 NSCLC
[27] = system: SK-MEL-2 melanoma
[28] = system: SNB-19 CNS
[29] = system: DU-145 prostate
[30] = system: CCRF-CEM leukemia
[31] = system: SN12C renal
[32] = system: IGROV1 ovarian
[33] = system: UACC-257 melanoma
[34] = system: MALME-3M melanoma
[35] = system: ACHN renal
[36] = system: HT29 colon
[37] = system: U251 CNS
[38] = system: NCI-H23 lung
[39] = system: NCI/ADR-RES ovarian
[40] = system: OVCAR-8 ovarian
[41] = system: UO-31 renal
[42] = system: MDA-MB-435
[43] = system: TK-10 renal
[44] = system: HL-60(TB) leukemia
[45] = system: HCT-116 colon
[46] = system: SF-268 CNS
[47] = system: BT-549 breast
[48] = system: NCI-H226 lung
[49] = system: MCF7 breast
[50] = system: SK-OV-3 ovarian
[51] = system: NCI-H522 lung
[52] = system: OVCAR-3 ovarian
[53] = system: EKVX NSCLC
[54] = system: SF-295 CNS
[55] = system: RPMI-8226 leukemia
[56] = system: SW-620 colon
[57] = system: LOX IMVI melanoma
[58] = system: HS 578T breast
[59] = system: MDA-MB-231 breast

## COc1ccc(-c2ccnc(SCc3cc4ccccc4[nH]c3=O)n2)cc1OC
[1]
  GI50: 16.4 µM
  TGI: 45.8 µM
[2]
  GI50: 12.4 µM
  TGI: 27.4 µM
[3]
  GI50: 12.7 µM
  TGI: 30.8 µM
[4]
  GI50: 14.5 µM
  TGI: 41 µM
[5]
  GI50: 33.9 µM
  TGI: > 100 µM
[6]
  GI50: 40.3 µM
  TGI: > 100 µM
[7]
  GI50: 8.22 µM
  TGI: 25.4 µM
[8]
  GI50: 30.8 µM
  TGI: > 100 µM
[9]
  GI50: 11 µM
  TGI: 38.9 µM
[10]
  GI50: 20 µM
  TGI: > 100 µM
[11]
  GI50: 4.27 µM
  TGI: 34 µM
[12]
  GI50: 13 µM
  TGI: 42.8 µM
[13]
  GI50: 5.45 µM
  TGI: 27.6 µM
[14]
  GI50: 19.1 µM
  TGI: 84.6 µM
[15]
  GI50: 14.5 µM
  TGI: 37.9 µM
[16]
  GI50: 4.36 µM
  TGI: 23.6 µM
[17]
  GI50: 17.8 µM
  TGI: 50.9 µM
[18]
  GI50: 16.5 µM
  TGI: 50.8 µM
[19]
  GI50: 7.17 µM
  TGI: > 100 µM
[20]
  GI50: 18.3 µM
  TGI: > 100 µM
[21]
  GI50: 17.3 µM
  TGI: 38.5 µM
[22]
  GI50: 23.6 µM
  TGI: > 100 µM
[23]
  GI50: 21.4 µM
  TGI: 58.8 µM
[24]
  GI50: 26.8 µM
  TGI: > 100 µM
[25]
  GI50: 5.48 µM
  TGI: > 100 µM
[26]
  GI50: 1.84 µM
  TGI: 14.9 µM
[27]
  GI50: 16.9 µM
  TGI: 50.4 µM
[28]
  GI50: 16.9 µM
  TGI: 54 µM
[29]
  GI50: 18.1 µM
  TGI: 71.9 µM
[30]
  GI50: 34.3 µM
  TGI: > 100 µM
[31]
  GI50: 12.4 µM
  TGI: 34.9 µM
[32]
  GI50: 16.8 µM
  TGI: 39.8 µM
[33]
  GI50: 30.6 µM
  TGI: 89.9 µM
[34]
  GI50: 23.1 µM
  TGI: 54.4 µM
[35]
  GI50: 13.5 µM
  TGI: 27.8 µM
[36]
  GI50: 18.8 µM
  TGI: 40.6 µM
[37]
  GI50: 19.9 µM
  TGI: > 100 µM
[38]
  GI50: 17.4 µM
  TGI: 42.6 µM
[39]
  GI50: 14.3 µM
  TGI: 49.8 µM
[40]
  GI50: 23.2 µM
  TGI: > 100 µM
[41]
  GI50: 11.1 µM
  TGI: 26.6 µM
[42]
  GI50: 30.6 µM
  TGI: > 100 µM
[43]
  GI50: 17.5 µM
  TGI: 58.9 µM
[44]
  GI50: 99.6 µM
  TGI: > 100 µM
[45]
  GI50: 21.2 µM
  TGI: > 100 µM
[46]
  GI50: 20.8 µM
  TGI: > 100 µM
[47]
  GI50: 7.58 µM
  TGI: 34.8 µM
[48]
  GI50: 13 µM
  TGI: 37.2 µM
[49]
  GI50: 26.9 µM
  TGI: > 100 µM
[50]
  GI50: 19.9 µM
  TGI: 41.7 µM
[51]
  GI50: 18.3 µM
  TGI: 61.1 µM
[52]
  GI50: 19.5 µM
  TGI: 56.4 µM
[53]
  GI50: 14.6 µM
  TGI: 53.5 µM
[54]
  GI50: 13.7 µM
  TGI: 34 µM
[55]
  GI50: 16.3 µM
  TGI: > 100 µM

## CC12OOC(C)(OO1)C2CCC(=O)OCCNc1ccnc2cc(Cl)ccc12 (stereo unspecified)
[1]
  GI50: > 18.3 µM
  TGI: > 18.3 µM
[2]
  GI50: > 18.3 µM
  TGI: > 18.3 µM
[3]
  GI50: > 18.3 µM
  TGI: > 18.3 µM
[4]
  GI50: > 18.3 µM
  TGI: > 18.3 µM
[5]
  GI50: 3.57 µM
  TGI: 10.8 µM
[6]
  GI50: 10.8 µM
  TGI: > 18.3 µM
[7]
  GI50: 3.21 µM
  TGI: 5.96 µM
[8]
  GI50: > 18.3 µM
  TGI: > 18.3 µM
[56]
  GI50: 5.83 µM
  TGI: > 18.3 µM
[9]
  GI50: > 18.3 µM
  TGI: > 18.3 µM
[10]
  GI50: 2.87 µM
  TGI: 5.47 µM
[11]
  GI50: 2.87 µM
  TGI: 7.73 µM
[12]
  GI50: > 18.3 µM
  TGI: > 18.3 µM
[14]
  GI50: 3.5 µM
  TGI: 7.42 µM
[15]
  GI50: 4.95 µM
  TGI: 16.5 µM
[16]
  GI50: > 18.3 µM
  TGI: > 18.3 µM
[17]
  GI50: > 18.3 µM
  TGI: > 18.3 µM
[18]
  GI50: > 18.3 µM
  TGI: > 18.3 µM
[19]
  GI50: 16.8 µM
  TGI: > 18.3 µM
[20]
  GI50: 3.35 µM
  TGI: 8.03 µM
[57]
  GI50: 2.87 µM
  TGI: 5.39 µM
[21]
  GI50: > 18.3 µM
  TGI: > 18.3 µM
[22]
  GI50: 4.17 µM
  TGI: 12.2 µM
[23]
  GI50: > 18.3 µM
  TGI: > 18.3 µM
[58]
  GI50: > 18.3 µM
  TGI: > 18.3 µM
[24]
  GI50: 6.3 µM
  TGI: > 18.3 µM
[25]
  GI50: 4.11 µM
  TGI: 11.8 µM
[26]
  GI50: 2.72 µM
  TGI: 7.92 µM
[27]
  GI50: > 18.3 µM
  TGI: > 18.3 µM
[28]
  GI50: > 18.3 µM
  TGI: > 18.3 µM
[29]
  GI50: 3.47 µM
  TGI: 6.32 µM
[59]
  GI50: > 18.3 µM
  TGI: > 18.3 µM
[30]
  GI50: 5.36 µM
  TGI: 17.5 µM
[31]
  GI50: > 18.3 µM
  TGI: > 18.3 µM
[32]
  GI50: 6.59 µM
  TGI: > 18.3 µM
[33]
  GI50: > 18.3 µM
  TGI: > 18.3 µM
[34]
  GI50: 3.1 µM
  TGI: 5.98 µM
[35]
  GI50: 1.59 µM
  TGI: 3.81 µM
[36]
  GI50: 3.46 µM
  TGI: 8.62 µM
[37]
  GI50: > 18.3 µM
  TGI: > 18.3 µM
[38]
  GI50: > 18.3 µM
  TGI: > 18.3 µM
[39]
  GI50: > 18.3 µM
  TGI: > 18.3 µM
[40]
  GI50: 16.8 µM
  TGI: > 18.3 µM
[41]
  GI50: 2.57 µM
  TGI: 4.94 µM
[42]
  GI50: 18.3 µM
  TGI: > 18.3 µM
[43]
  GI50: 2.69 µM
  TGI: 6.03 µM
[44]
  GI50: > 18.3 µM
  TGI: > 18.3 µM
[45]
  GI50: 3.59 µM
  TGI: 8.67 µM
[46]
  GI50: > 18.3 µM
  TGI: > 18.3 µM
[47]
  GI50: > 18.3 µM
  TGI: > 18.3 µM
[48]
  GI50: 4.19 µM
  TGI: 14.2 µM
[49]
  GI50: 7.76 µM
  TGI: > 18.3 µM
[50]
  GI50: > 18.3 µM
  TGI: > 18.3 µM
[51]
  GI50: 3.23 µM
  TGI: 6.53 µM
[52]
  GI50: 3.71 µM
  TGI: 7.21 µM
[53]
  GI50: > 18.3 µM
  TGI: > 18.3 µM
[54]
  GI50: > 18.3 µM
  TGI: > 18.3 µM
[55]
  GI50: 8.81 µM
  TGI: > 18.3 µM
